Consider 22 compounds from ChEMBL document CHEMBL5505957 (Eur J Med Chem, 2024).

The structures appear in SMILES notation. ≈ marks a conversion by molar mass, not a printed value.

Series [1] deals with T1, Human immunodeficiency virus type 1 protease (Human immunodeficiency virus 1, UniProt Q72874).
Series [2] in a line: Inhibition of Serratia marcescens Chitinase B.
The next series addresses T2, Protein O-GlcNAcase (Homo sapiens, UniProt O60502).
T2 sequence (O60502 whole entry): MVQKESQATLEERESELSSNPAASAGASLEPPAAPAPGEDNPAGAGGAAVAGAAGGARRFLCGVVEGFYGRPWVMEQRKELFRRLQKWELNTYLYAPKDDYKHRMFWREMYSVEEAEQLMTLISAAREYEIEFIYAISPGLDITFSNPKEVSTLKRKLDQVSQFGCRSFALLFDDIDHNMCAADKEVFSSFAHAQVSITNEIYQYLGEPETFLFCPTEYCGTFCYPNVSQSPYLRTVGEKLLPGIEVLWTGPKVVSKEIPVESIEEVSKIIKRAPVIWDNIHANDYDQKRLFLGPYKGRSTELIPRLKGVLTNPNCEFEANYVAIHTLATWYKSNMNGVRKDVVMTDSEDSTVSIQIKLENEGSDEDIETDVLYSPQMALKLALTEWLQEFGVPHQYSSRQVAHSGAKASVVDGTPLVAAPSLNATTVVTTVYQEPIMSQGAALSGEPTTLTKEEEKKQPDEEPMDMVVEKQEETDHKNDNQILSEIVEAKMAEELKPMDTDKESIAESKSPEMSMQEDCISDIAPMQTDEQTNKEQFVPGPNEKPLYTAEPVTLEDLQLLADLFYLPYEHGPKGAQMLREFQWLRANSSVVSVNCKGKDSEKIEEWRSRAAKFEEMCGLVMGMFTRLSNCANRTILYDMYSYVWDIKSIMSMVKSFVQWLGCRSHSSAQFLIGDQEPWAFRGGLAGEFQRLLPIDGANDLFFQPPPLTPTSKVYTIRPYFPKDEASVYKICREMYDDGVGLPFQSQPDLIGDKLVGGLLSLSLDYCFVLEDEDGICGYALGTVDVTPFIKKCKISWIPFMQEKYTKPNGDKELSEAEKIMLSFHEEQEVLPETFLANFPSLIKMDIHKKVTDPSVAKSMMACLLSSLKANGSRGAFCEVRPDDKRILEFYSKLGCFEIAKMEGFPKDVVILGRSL

In series [3] the test system is Human immunodeficiency virus 1. Briefly: Antiviral activity against HIV-1 infected in human MT4 cells assessed as inhibition of virus-induced cytopathic effect measured after 5 days by spectrophotometric MTT assay. As to conditions: Human immunodeficiency virus 1, MT4, 120 h.
The nature of series [4]: Inhibition of Influenza A virus H1N1 neuraminidase.
Series [5] is described as follows: Cytotoxicity against MDCK cells assessed as reduction in cell viability incubated for 48 hrs by MTT assay. The conditions noted are these: dog.
Series [6] deals with Aspergillus fumigatus. Briefly: Antifungal activity against Aspergillus fumigatus by CLSI based broth microdilution method.
Series [7] has as its system Aspergillus fumigatus. Briefly: Antimicrobial activity against Aspergillus fumigatus assessed as fungal growth inhibition.
The next series concerns the target Cholinesterase (Equus caballus, UniProt P81908). Briefly: Inhibition of equine serum BuChE using butyrylthiocholine chloride as substrate by Ellman's method.
Series [8] is described as follows: Cytotoxicity against African green monkey Vero E6 cells assessed as reduction in cell viability measured after 72 hrs by MTS assay.
In series [9] the target is Replicase polyprotein 1ab (Severe acute respiratory syndrome coronavirus 2, UniProt P0DTD1).
In series [10] the target is T1, Human immunodeficiency virus type 1 protease. Briefly: Binding affinity to HIV-1 protease assessed as inhibition constant.
Series [11] has as its system Human immunodeficiency virus 1. Nature of the series: Anti-HIV activity against wild type HIV-1 IIIB infected in human MT4 cells assessed as inhibition of virus-induced cytopathic effect incubated for 5 days by MTT assay. The conditions noted are these: Human immunodeficiency virus 1, IIIB, MT4, 120 h.
In series [12] the test system is Human immunodeficiency virus 1. Nature of the series: microbe, parasite or virus in culture. The conditions noted are these: Human immunodeficiency virus 1, C8166.
The next series concerns Rattus norvegicus. Nature of the series: Anti-inflammatory activity against carrageenan-induced paw edema in Sprague-Dawley rat assessed as inhibition of paw edema.
Series [13] in a line: Inhibition of Serratia marcescens Chitinase A.
Series [14] concerns the target T3, M-phase inducer phosphatase 3 (Homo sapiens, UniProt P30307).
T3 sequence (P30307 whole entry): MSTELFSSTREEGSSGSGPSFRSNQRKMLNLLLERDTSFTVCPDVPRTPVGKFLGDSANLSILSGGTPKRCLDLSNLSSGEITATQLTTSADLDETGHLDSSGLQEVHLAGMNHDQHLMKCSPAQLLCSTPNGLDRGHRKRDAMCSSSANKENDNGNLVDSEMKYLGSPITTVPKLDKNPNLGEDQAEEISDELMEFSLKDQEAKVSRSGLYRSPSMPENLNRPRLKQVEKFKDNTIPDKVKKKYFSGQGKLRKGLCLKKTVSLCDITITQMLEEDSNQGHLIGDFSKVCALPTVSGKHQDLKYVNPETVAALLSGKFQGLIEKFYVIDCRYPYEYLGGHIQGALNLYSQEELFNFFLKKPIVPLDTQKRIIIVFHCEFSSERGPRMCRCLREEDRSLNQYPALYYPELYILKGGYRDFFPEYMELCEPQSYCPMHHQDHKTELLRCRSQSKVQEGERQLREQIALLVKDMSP
Briefly: Inhibition of full-length recombinant human CDC25C incubated for 5 to 8 mins by fluorescence based assay.

The test system of series [15] is Human immunodeficiency virus 1. Briefly: microbe, parasite or virus in culture. The conditions noted are these: Human immunodeficiency virus 1, C8166. The source holds these as a separate data set.

Sequence of Cholinesterase (P81908 whole entry): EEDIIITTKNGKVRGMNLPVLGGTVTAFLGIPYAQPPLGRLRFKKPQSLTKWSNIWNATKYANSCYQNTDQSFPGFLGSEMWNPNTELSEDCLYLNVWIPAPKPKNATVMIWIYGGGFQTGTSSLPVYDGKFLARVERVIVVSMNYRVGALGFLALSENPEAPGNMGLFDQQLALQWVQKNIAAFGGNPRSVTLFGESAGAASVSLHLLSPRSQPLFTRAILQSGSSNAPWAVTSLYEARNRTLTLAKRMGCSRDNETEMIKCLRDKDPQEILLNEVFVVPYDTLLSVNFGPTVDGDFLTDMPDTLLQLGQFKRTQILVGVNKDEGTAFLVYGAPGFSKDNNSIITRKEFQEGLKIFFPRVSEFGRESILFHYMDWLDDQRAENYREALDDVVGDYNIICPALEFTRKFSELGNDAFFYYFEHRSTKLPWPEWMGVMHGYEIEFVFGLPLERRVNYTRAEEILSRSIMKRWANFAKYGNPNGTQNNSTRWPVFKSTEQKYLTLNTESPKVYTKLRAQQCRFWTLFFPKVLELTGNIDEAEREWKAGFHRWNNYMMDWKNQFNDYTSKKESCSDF

Compound `COc1ccc(S(=O)(=O)N(CC(C)C)C[C@@H](O)[C@H](Cc2ccccc2)n2cc(CNC(=O)c3ccncc3)nn2)cc1` showed an IC50 in [1] of 10 nM. For the compound `CNC(=O)NC(=N)NCCC[C@@H](NC(=O)Cn1nncc1CO/N=C/c1ccnc2ccccc12)C(=O)N(Cc1ccccc1)Cc1ccccc1`, the IC50 in [2] is 22 nM. In turn, `CO[C@@H]1O[C@H](CO)[C@@H](O)[C@H](O)[C@H]1n1cc(CNc2ccccc2)nn1` gave an IC50 at Protein O-GlcNAcase of 520 nM. For `Cc1c(Cc2c(Cl)cccc2Cl)nc(SCc2cn(Cc3ccc(S(N)(=O)=O)cc3)nn2)[nH]c1=O`, the EC50 in [3] amounted to 3220 nM.

The compound `CO[C@@H]1O[C@H](CO)[C@@H](O)[C@H](O)[C@H]1n1cc(COc2ccccc2)nn1` registered an IC50 on Protein O-GlcNAcase of 720 nM. `COC(=O)[C@@H](C)NP(=O)(OCC1OC(n2cc(CN3CCC(=O)NC3=O)nn2)C(O)C1O)Oc1ccccc1` (some centres not stated): the IC50 in [4] stood at 25000 nM. Turning to `CNC(=O)NC(=O)NCCC[C@@H](NC(=O)CN)C(=O)N(Cc1ccccc1)Cc1ccccc1`, in [2], inhibition was half-maximal at 580 nM (IC50).

Consider `Cc1[nH]c(=O)[nH]c(=O)c1CCCc1cn(C2OC(CO)C(O)C2O)nn1` (configuration not stated), for which the half-maximal cytotoxic concentration (CC50) at 48 h in series [5] came to 79000 nM. In the case of `C=CCc1ccc(OCc2cn([C@H]3O[C@H](COC(C)=O)[C@@H](OC(C)=O)[C@H](OC(C)=O)[C@H]3OC(C)=O)nn2)c(OC)c1`, the IC50 in the series on Aspergillus fumigatus [6] was 5420 nM. For the same compound, the MIC in the series with Aspergillus fumigatus [7] turned out to be 10.9 µM (≈ 6.25 µg/mL). With `CC(=O)O[C@H]1[C@H](OCc2cn(CC3=NCCS3)nn2)OC[C@@H](OC(C)=O)[C@H]1OC(C)=O`, the IC50 in series [4] turned out to be 1640 nM. The compound `O=C(CCCCC1CCSS1)NCc1cn(CCCCOc2ccc3c(c2)OCCC3=O)nn1` (configuration not stated) showed an IC50 against Cholinesterase of 7550 nM. Take `CC1=NN(c2ccc(Cl)cc2)C(=O)/C1=C\c1ccc(OCc2cn(CC(=O)NCc3ccc(C(=O)O)cc3)nn2)cc1`: the IC50 at 72 h in series [8] turned out to be 22100 nM. Besides, half-maximal inhibition in series [9] (IC50) required 3160 nM.

Take `COc1ccc(S(=O)(=O)N(CC(C)C)C[C@@H](O)C(Cc2ccccc2)n2cc(COC(=O)NC3c4ccccc4C[C@H]3O)nn2)cc1` (single isomer, unassigned): the inhibition constant Ki in series [10] was 1.7 nM. Further, the IC50 in series [1] worked out at 6 nM.

In the case of `COC(=O)[C@@H](NC(=O)OCc1cn([C@@H](Cc2ccccc2)[C@H](O)CN(CC(C)C)S(=O)(=O)c2ccc(OC)cc2)nn1)c1ccccc1`, the 50% inhibitory concentration (IC50) in [1] is 10 nM.

Consider `CO[C@@H]1O[C@H](CO)[C@@H](O)[C@H](O)[C@H]1n1cc(CCc2ccccc2)nn1`, for which 500 nM corresponded to half-maximal inhibition against Protein O-GlcNAcase (IC50). As to `COC(=O)c1ccc(-n2cc(-c3cc(C)c(Oc4ccnc(Nc5ccc(C#N)cc5)n4)c(C)c3)nn2)cc1`, in series [11], the concentration for half-maximal inhibition (IC50) is 13 nM. In series [12], `COc1ccc(S(=O)(=O)N(CC(C)C)C[C@@H](O)[C@H](Cc2ccccc2)n2cc(CNC(=O)N[C@H]3c4ccccc4C[C@H]3O)nn2)cc1` gave an IC50 of 46 nM. Take `Cc1cc(-n2cc(-c3ccc(N)cc3)nn2)n(-c2ccc(S(C)(=O)=O)cc2)n1`: the ED50 in the series on Rattus norvegicus turned out to be 0.12 mg/kg.

On to `CNC(=O)NC(=N)NCCC[C@@H]1NC(=O)[C@@H](C)NC(=O)C[C@@H](C(=O)O)NC(=O)C[C@@H](C(=O)O)NC(=O)[C@H](Cc2ccccc2)N(C)C1=O` [ARGIFIN], for which the half-maximal inhibitory concentration (IC50) is 6400 nM in [2] and 25 nM in series [13]. For `CC(NC1=C(Cl)C(=O)c2cccnc2C1=O)c1cn(Cc2ccc(CO)cc2)nn1` (configuration not stated), in series [14], the IC50 is 60 nM. On to `Cc1cc(-n2cc(-c3ccc(F)cc3)nn2)n(-c2ccc(S(C)(=O)=O)cc2)n1`, for which, in the series with Rattus norvegicus, the ED50 turned out to be 0.44 mg/kg. As for `COc1ccc(S(=O)(=O)N(CC(C)C)C[C@@H](O)[C@H](Cc2ccccc2)n2cc(CNC(=O)c3ccc(CNC(=O)OC(C)(C)C)cc3)nn2)cc1`, the IC50 in series [15] was determined as 17 nM; in [12], 52 nM.
